# Laboratory results: patent US20210371491A1, “CHIMERIC ANTIGEN RECEPTORS THAT BIND TO PROSTATE SPECIFIC MEMBRANE ANTIGEN” (Albert-Ludwigs-Universitaet Freiburg, priority 2018, published 2021)
# Several values for one entry are separate records, joined by “and”; a condition that tells them apart may be missing. Equal values may be shown once.
# System: C4-2^luc+ tumor xenografts
# Test: Treatment of C4-2^luc+ tumor xenografts by docetaxel chemotherapy plus intravenous CAR T cells (Example 12)
# Format: in vivo, mice
# Description: (A) Schematic of combined chemotherapy with intravenous CAR T cell therapy. Tumor engraftment was established in animals by subcutaneous injection of 1.5×10^6 cells. Chemotherapy had started at day 1 of the treatment for 3 days by intraperitoneal injection of docetaxel (DOC, 6 mg/kg bw). 48 hours after the last chemotherapy cycle, mice were injected intravenously with single doses of 5×10^6 CAR28 (n=3) or CAR41 T cells (n=3). Control mice were injected with docetaxel alone (n=3) or left untreated (control, n=4). Tumors were visualized via BLI until the end of treatment at day 17. D, day; i.v, intravenous injection; i.p, intraperitoneal; s.c, subcutaneous.
# (B) Antitumor activity of CAR28 and CAR41 T cells in combination with docetaxel chemotherapy. Mice with subcutaneously growing C4-2^luc+ tumors (200-250 mm^3) were intraperitoneally injected with docetaxel (DOC; 6 mg/kg bw) on days 1, 2, and 3 of treatment. 48 hours later mice were additionally injected with a single dose of 5×10^6 CAR28 (n=3) or CAR41 T cells (n=3) intravenously. Tumor growth was monitored by BLI. […] Statistical significant differences are indicated by *p<0.05.
# Mice with large C4-2^luc+ tumor xenografts (200-250 mm^3) were intraperitoneally injected with 3 daily cycles of docetaxel (DOC, 6 mg/kg bw on days 1, 2, and 3 of treatment) (FIG. 9A). 48 hours after the last cycle, mice were intravenously injected with only one dose of 5×10^6 CAR28 (n=3) CAR41 T cells (n=3), or PBS (n=3) respectively (FIG. 9A). Control animals (n=4) remained completely untreated. Tumor growth was monitored by BLI as described above. […] Compared to the control group (1817.5±165.5 mm^3) tumor end volumes of 338.2±355.6 mm^3 for mice treated with DOC alone and of 599.9±317.2 mm^3 for mice treated with DOC+CAR28 were reached on day 17 (FIG. 9C). […] A mean tumor volume of 50.2±71.0 mm^3 was determined (FIG. 9C).
compound,measurement,setting,value
"CC(=O)O[C@@]12CO[C@@H]1C[C@H](O)[C@@]1(C)C(=O)[C@H](O)C3=C(C)[C@@H](OC(=O)[C@H](O)[C@@H](NC(=O)OC(C)(C)C)c4ccccc4)C[C@@](O)([C@@H](OC(=O)c4ccccc4)[C@H]21)C3(C)C [DOC, docetaxel]",tumor growth compared to control group (in words),DOC 6 mg/kg bw days 1-3 ± CAR T cells i.v.,inhibition of tumor growth
same,"partial remission (PR), mice","DOC 6 mg/kg bw i.p. days 1-3, CAR T cells 5×10^6 i.v. 48 h later, tumors 200-250 mm^3",⅔
same,mean tumor volume,"day 17, DOC 6 mg/kg bw days 1-3 ± CAR T cells i.v.",338.2±355.6 mm^3 and 338.3±355.6 mm^3
